From PubChem BioAssay AID330 (DTP/NCI, 2004) come the findings set out here.

In the assay the test system is P388 leukemia ip, CD2F1 mice, survival T/C. Kind of assay: NCI In Vivo Anticancer Drug Screen. Data for tumor model P388 Leukemia (intraperitoneal) in CD2F1 (CDF1) mice. The settings on record: endpoint: median survival time, higher = longer survival. In short, it runs like this:
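Mice carrying the transplanted tumor received test compound or vehicle. Survival was recorded in each group, and the value is the treated-group measurement divided by that of the vehicle-treated control group.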

Setting [1] is: dose: 50.0 mg/kg/injection, schedule: Q01DX009 (ip), vehicle: saline with Tween-80.
The mark [2] stands for this setting: dose: 100.0 mg/kg/injection, schedule: Q01DX009 (ip), vehicle: saline with Tween-80.
The mark [3] stands for this setting: dose: 200.0 mg/kg/injection, schedule: Q04DX003 (ip), vehicle: saline with Tween-80.
[4] abbreviates: dose: 50.0 mg/kg/injection, schedule: Q01DX005 (ip), vehicle: saline with Tween-80.
[5] abbreviates: dose: 100.0 mg/kg/injection, schedule: Q01DX005 (ip), vehicle: saline with Tween-80.
[6] abbreviates: dose: 200.0 mg/kg/injection, schedule: Q01DX005 (ip), vehicle: saline with Tween-80.
Setting [7] is: dose: 50.0 mg/kg/injection, schedule: Q01DX005 (ip), vehicle: Klucel (hydroxypropylcellulose) (HPC).
Where [8] appears, read: dose: 100.0 mg/kg/injection, schedule: Q01DX005 (ip), vehicle: Klucel (hydroxypropylcellulose) (HPC).
The mark [9] stands for this setting: dose: 200.0 mg/kg/injection, schedule: Q01DX005 (ip), vehicle: Klucel (hydroxypropylcellulose) (HPC).
[10] abbreviates: dose: 50.0 mg/kg/injection, schedule: Q01DX009 (ip), vehicle: saline.
The mark [11] stands for this setting: dose: 100.0 mg/kg/injection, schedule: Q01DX001 (ip), vehicle: saline with Tween-80.
Setting [12] is: dose: 200.0 mg/kg/injection, schedule: Q01DX001 (ip), vehicle: saline with Tween-80.
[13] abbreviates: dose: 400.0 mg/kg/injection, schedule: Q01DX001 (ip), vehicle: saline with Tween-80.
Where [14] appears, read: dose: 6.25 mg/kg/injection, schedule: Q04DX003 (ip), vehicle: saline.
The mark [15] stands for this setting: dose: 12.5 mg/kg/injection, schedule: Q04DX003 (ip), vehicle: saline.
The mark [16] stands for this setting: dose: 25.0 mg/kg/injection, schedule: Q04DX003 (ip), vehicle: saline.
[17] abbreviates: dose: 100.0 mg/kg/injection, schedule: Q04DX003 (ip), vehicle: saline.
Setting [18] is: dose: 25.0 mg/kg/injection, schedule: Q01DX005 (ip), vehicle: saline with Tween-80.

“And” between values parts separate entries of the source, which are not always exact repeats. Equal entries are not always repeated. Inconclusive results and toxic doses are left out. Peptide text beside a SMILES is read from it.

Regarding `CC(C)(C)n1nnnc1N`, the T/C is, setting by setting: (dose: 12.5 mg/kg/injection, schedule: Q01DX009 (ip), vehicle: Klucel (hydroxypropylcellulose) (HPC)) 100 % of control; (dose: 25.0 mg/kg/injection, schedule: Q01DX009 (ip), vehicle: Klucel (hydroxypropylcellulose) (HPC)) 94 % of control; (dose: 50.0 mg/kg/injection, schedule: Q01DX009 (ip), vehicle: Klucel (hydroxypropylcellulose) (HPC)) 105 % of control and 112 % of control; (dose: 200.0 mg/kg/injection, schedule: Q01DX009 (ip), vehicle: Klucel (hydroxypropylcellulose) (HPC)) 103 % of control.

Take `CC(=O)C1C(C=C(C)C)C1(C)C` (stereo not given): the T/C runs as follows: (dose: 100.0 mg/kg/injection, schedule: Q04DX002 (ip), vehicle: saline with Tween-80) 96 % of control; (dose: 200.0 mg/kg/injection, schedule: Q04DX002 (ip), vehicle: saline with Tween-80) 106 % of control; (dose: 400.0 mg/kg/injection, schedule: Q04DX002 (ip), vehicle: saline with Tween-80) 101 % of control.

For the compound `Cc1ccc(S(=O)(=O)NC(=O)OC23COCN2COC3)cc1`, the T/C under setting [1] is 117 % of control and the T/C under setting [2] was 122 % of control.

For the compound `CC1OS(=O)(=O)C=C1Br` (stereo not given), the T/C was 108 % of control (dose: 100.0 mg/kg/injection, schedule: Q04DX003 (ip), vehicle: saline with Tween-80); 97 % of control under setting [3]; 89 % of control (dose: 400.0 mg/kg/injection, schedule: Q04DX003 (ip), vehicle: saline with Tween-80).

As for `NC(=O)CSCC(=O)c1ccccc1`, the T/C runs as follows: under setting [4], 102 % of control; under setting [5], 107 % of control; under setting [6], 102 % of control.

Consider `c1ccc2nc3c(nc2c1)CCCC3`, for which the T/C runs as follows: under setting [7], 96 % of control; under setting [8], 109 % of control; under setting [9], 100 % of control.

Take `CN(C)c1ncnc2c1ncn2[C@H]1CCC[C@@H]1O`: the T/C was 109 % of control (dose: 0.37 mg/kg/injection, schedule: Q01DX005 (ip), vehicle: Klucel (hydroxypropylcellulose) (HPC)); 110 % of control (dose: 0.75 mg/kg/injection, schedule: Q01DX005 (ip), vehicle: Klucel (hydroxypropylcellulose) (HPC)); 112 % of control and 116 % of control (dose: 1.5 mg/kg/injection, schedule: Q01DX005 (ip), vehicle: Klucel (hydroxypropylcellulose) (HPC)).

As for `Nc1nc2c(c(=O)[nH]1)N(C(=O)CCCC(=O)O)C(CN(C(=O)CCCC(=O)O)c1ccc(C(=O)NC(CCC(=O)O)C(=O)O)cc1)CN2` (stereo not given) (tested in a mixture with another compound), the T/C under setting [10] is 94 % of control; the T/C (dose: 100.0 mg/kg/injection, schedule: Q01DX009 (ip), vehicle: saline) was 110 % of control; the T/C (dose: 200.0 mg/kg/injection, schedule: Q01DX009 (ip), vehicle: saline) is 95 % of control.

Regarding `C=C1CC2(OC1=O)C(=O)N(C)c1ccc(I)cc12` (stereo not given), the T/C reads like this: (dose: 25.0 mg/kg/injection, schedule: Q01DX009 (ip), vehicle: saline) 116 % of control; under setting [10], 87 % of control.

Consider `O=C1CC2OCC=C3CN4CCC56c7ccccc7N1C5C2C3CC46` (stereo not given) (tested in a mixture with another compound), for which the T/C is, setting by setting: (dose: 0.38 mg/kg/injection, schedule: Q01DX009 (ip), vehicle: saline + alcohol) 100 % of control; (dose: 0.75 mg/kg/injection, schedule: Q01DX009 (ip), vehicle: saline + alcohol) 109 % of control; (dose: 1.5 mg/kg/injection, schedule: Q01DX009 (ip), vehicle: saline + alcohol) 95 % of control.

As to `C1CCCCC2=NCCC(CCCC1)C2` (stereo not given), the T/C runs as follows: under setting [7], 103 % of control; under setting [8], 107 % of control.

In the case of `[N-]=[N+]=Nc1ccccc1C(=O)Nc1ccccc1C(N)=O`, the T/C is, setting by setting: (dose: 100.0 mg/kg/injection, schedule: Q04DX002 (ip), vehicle: Klucel (hydroxypropylcellulose) (HPC)) 101 % of control; (dose: 200.0 mg/kg/injection, schedule: Q04DX002 (ip), vehicle: Klucel (hydroxypropylcellulose) (HPC)) 104 % of control; (dose: 400.0 mg/kg/injection, schedule: Q04DX002 (ip), vehicle: Klucel (hydroxypropylcellulose) (HPC)) 104 % of control.

Take `Cc1ccc(S(=O)(=O)NC(=O)NNC(=O)C(=O)Nc2ccc(F)cc2)cc1`: the T/C is 100 % of control under setting [7], 90 % of control under setting [8] and 90 % of control under setting [9].

Turning to `CCCn1c(Cl)c(/C=N\Nc2ccccc2[N+](=O)[O-])c2ccccc21`, the T/C was 92 % of control under setting [11], 92 % of control under setting [12] and 93 % of control under setting [13].

As to `CCCCOc1cc(C(=O)O)ccc1[N+](=O)[O-]`, the T/C was 100 % of control (dose: 50.0 mg/kg/injection, schedule: Q04DX003 (ip), vehicle: saline with Tween-80) and 104 % of control under setting [3].

For `Cc1ccc(N2CCOS(=O)OCC2)cc1`, the T/C by setting is: under setting [4], 101 % of control; under setting [5], 98 % of control; under setting [6], 101 % of control.

As for `O=C(NC1CCCCC1)Oc1ccccc1-c1ccccc1`, the T/C under setting [11] was 100 % of control, the T/C under setting [12] was 100 % of control and the T/C under setting [13] was 100 % of control.

For `CC1(C=O)CCCC2(C)[C@@H]1CCC13CC(CO)C(CC[C@H]12)C3` (stereo not given in full), the T/C reads like this: (dose: 1.63 mg/kg/injection, schedule: Q01DX005 (ip), vehicle: Klucel (hydroxypropylcellulose) (HPC)) 86 % of control; (dose: 3.25 mg/kg/injection, schedule: Q01DX005 (ip), vehicle: Klucel (hydroxypropylcellulose) (HPC)) 88 % of control.

In the case of `COC(=O)/C=C/C(=O)NC(N)=O`, the T/C by setting is: under setting [14], 100 % of control; under setting [15], 109 % of control; under setting [16], 100 % of control.

As to `CCN1CCC(C2(C(=O)OC)c3ccccc3-c3ccccc32)C1` (stereo not given), the T/C is 106 % of control under setting [14], 108 % of control under setting [15], 103 % of control under setting [16] and 104 % of control under setting [17].

With `COc1cc(/C=N/NC(=O)COCC(=O)N/N=C/c2ccc(O)cc2OC)ccc1O`, the T/C (dose: 6.25 mg/kg/injection, schedule: Q01DX005 (ip), vehicle: saline with Tween-80) is 103 % of control; the T/C (dose: 12.5 mg/kg/injection, schedule: Q01DX005 (ip), vehicle: saline with Tween-80) is 101 % of control; the T/C under setting [18] is 105 % of control.

In the case of `Fc1ccc(C=NC23CC4CC(CC(C4)C2)C3)cc1`, the T/C under setting [1] is 93 % of control; the T/C under setting [2] was 91 % of control; the T/C (dose: 200.0 mg/kg/injection, schedule: Q01DX009 (ip), vehicle: saline with Tween-80) was 97 % of control.

Turning to `CC(=N/N=C(N)N)/C(C)=N\Nc1ccc(Cl)cc1`, the T/C was 101 % of control under setting [16]; 101 % of control (dose: 50.0 mg/kg/injection, schedule: Q04DX003 (ip), vehicle: saline); 108 % of control and 88 % of control under setting [17].

As to `COc1ccc(C=NCCC[Si]23OCCN(CCO2)CCO3)c(OC)c1OC`, the T/C runs as follows: under setting [7], 98 % of control; under setting [8], 94 % of control; under setting [9], 103 % of control.

For `CC(O)C(N)C(=O)NC(Cc1ccccc1)C(N)=O` (stereo not drawn) (H-Thr-Phe-NH2; configuration not given here), the T/C is 101 % of control under setting [4], 100 % of control under setting [5] and 103 % of control under setting [6].

In the case of `CCOC(=O)C1C(=O)[C@H](C(=O)OC)C2CCCC3CCCC1N32` (stereo not given in full), the T/C runs as follows: (dose: 60.0 mg/kg/injection, schedule: Q01DX005 (ip), vehicle: saline with Tween-80) 86 % of control; (dose: 120.0 mg/kg/injection, schedule: Q01DX005 (ip), vehicle: saline with Tween-80) 87 % of control.

Consider `CC(C)(C)c1cc2c3c(c1)C(C(F)(F)F)(C(F)(F)F)OS3(=O)(O)OC2(C(F)(F)F)C(F)(F)F`, for which the T/C is 100 % of control under setting [18], 98 % of control under setting [4] and 103 % of control under setting [5].

Regarding `CCOc1ccc(NC(=O)/C(=C\c2ccc(C)cc2)C(C)=O)cc1`, the T/C under setting [4] is 106 % of control, the T/C under setting [5] is 110 % of control and the T/C under setting [6] is 104 % of control.
